Experimental data taken from paper PMC5510653 (ACS chemical neuroscience, 2016).

How the values were obtained:
[1] = system: MPTP-treated parkinsonian monkeys; assay: Motor behavior in MPTP-treated parkinsonian monkeys; type: in vivo, Rhesus monkeys
[2] = system: MDCK-MDR1 (MDCK-Pgp) cells
[3] = system: MPTP-treated parkinsonian monkey; assay: ECoG recordings and scoring of state of arousal and movements; type: in vivo, Rhesus monkey; details: ML218 3 mg/kg s.c., one monkey
[4] = system: haloperidol-induced catalepsy; details: haloperidol-induced catalepsy model in rats ref 38; cited from earlier work
[5] = rhesus monkey
[6] = rhesus monkey, in vivo, sc, 10 mg/kg
[7] = system: electrical cardiac activities; assay: Effects of ML218 on cardiac function; type: in vivo, Rhesus monkeys; details: ketamine sedation
[8] = system: TH immunolabeling; assay: Post-mortem TH immunoperoxidase staining of striatum; type: in vivo, Rhesus monkeys; details: 7 MPTP-treated animals vs mean of 3 non-treated monkeys, mean ± SEM
[9] = system: slow-wave sleep; details: mice ref 39, 40; cited from earlier work

N[C@@H](Cc1ccc(O)c(O)c1)C(=O)O [L-DOPA, reference compound]
antiparkinsonian effects (number of movements, activity counts) ([1]; L-DOPA 5, 10, 15, 20 mg/kg i.m. in combination with benserazide): strong, dose-dependent antiparkinsonian effects

CC(C)(C)CCN1C[C@@H]2C(CNC(=O)c3cc(Cl)cc(Cl)c3)[C@@H]2C1 (stereo partly shown) [ML218]
Papp AB [2]: 2.6e^− 6 cm/sec | mean number of movements per 5 minute of observation ([3]; 2 hours of observation, vehicle 51.07 ± 6.42, p=0.016): 25.39 ± 4.52 | sleep ratio ([3]; within 120 minutes, vehicle 0.09 ± 0.06, p=0.008): 0.54 ± 0.06 | anti-cataleptic properties [4]: anti-cataleptic properties | Fu (fraction of unbound compound in plasma) [5]: 0.09 | CSF Tmax [6]: 1 to 2 h | effect of adding ML218 on L-DOPA-mediated responses ([1]; ML218 3 mg/kg s.c. 60 min before L-DOPA 10 mg/kg i.m. plus 2.5 mg/kg benserazide): did not alter the L-DOPA-mediated responses | activity counts compared to baseline ([1]; ML218 10 mg/kg s.c., p=0.002): reduced | number of movements compared to baseline ([1]; ML218 10 mg/kg s.c., p=0.006): reduced | antiparkinsonian effects (number of movements, activity counts) ([1]; ML218 1, 10 and 30 mg/kg s.c., observed from 1 hour after injection): no antiparkinsonian effects | chronotropic effect (R-R interval) ([7]; 30 mg/kg s.c., ECG two hours after injection, 3 animals): minor negative chronotropic effects | effects on the other ECG parameters studied (PR, RT intervals) ([7]; 10 and 30 mg/kg s.c.): no consistent effects

CN1CC=C(c2ccccc2)CC1 [MPTP]
reduction of TH immunolabeling in the caudate [8]: 89 ± 3% | reduction of TH immunolabeling in the post-commissural putamen [8]: 87 ± 3%

C[C@@H](NC(=O)Cc1ccc(C2CC2)cc1)c1ccc(OCC(F)(F)F)cn1 [TTA-A2]
effect on slow-wave sleep [9]: promotes slow-wave sleep
